From article PMC12175894 (Science Advances, 2025)
Changes are numbered by the printed parent chain. Read-outs that look alike come from different tables or passages of the source.

How the values were obtained:
5-HT1AR [1] = target: T1, 5-HT1AR (Homo sapiens, UniProt P08908); assay: BRET-based cAMP assay (CAMYEL biosensor) in CHO-K1 cells; format: cell-based
T1 sequence (P08908 1-422): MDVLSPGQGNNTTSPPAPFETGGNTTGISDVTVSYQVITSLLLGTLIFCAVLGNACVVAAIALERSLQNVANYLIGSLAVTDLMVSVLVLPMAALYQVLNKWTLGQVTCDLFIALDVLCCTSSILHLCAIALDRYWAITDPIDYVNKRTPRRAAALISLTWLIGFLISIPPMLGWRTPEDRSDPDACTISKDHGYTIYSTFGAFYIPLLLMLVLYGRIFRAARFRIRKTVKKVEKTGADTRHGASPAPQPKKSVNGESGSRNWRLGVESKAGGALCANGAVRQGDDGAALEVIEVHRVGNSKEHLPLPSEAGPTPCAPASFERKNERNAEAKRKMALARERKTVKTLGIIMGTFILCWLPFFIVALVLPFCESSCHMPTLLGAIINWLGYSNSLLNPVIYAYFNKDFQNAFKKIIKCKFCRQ

muscarinic M1 = muscarinic M1 (Homo sapiens, UniProt P11229); assay: Radioligand displacement, [3H]NMS
5-HT1AR Q97^2.65A = target: T2, 5-HT1AR Q97^2.65A (Homo sapiens, UniProt P08908, Q97A); assay: Radioligand competition, displacement of [3H]WAY100635; format: binding; conditions: 5-HT1AR Q97A; HEK 293T membranes; read-out: Ki [nM ± SEM]
T2 sequence (P08908 1-422 Q97A): T1 sequence (P08908 1-422) with Q97A

neurotensin NTS1 = neurotensin NTS1 (Homo sapiens, UniProt P30989); assay: Radioligand displacement, [3H]NT(8-13)
5-HT1AR + Gαz = target: T3, 5-HT1AR + Gαz (Homo sapiens, UniProt P08908); assay: GloSensor cAMP in HEK293AΔGi/o co-transfected with Gαz; format: cell-based
T3 construct: host or cells: HEK293AΔGi/o

5-HT1AR wt = target: T4, 5-HT1AR wt (Homo sapiens, UniProt P08908); assay: Radioligand competition, displacement of [3H]WAY100635; format: binding
T4 construct: host or cells: HEK293T, transient; membranes
T4 sequence (P08908 1-422): T1 sequence (P08908 1-422)

5-HT1BR = 5-HT1BR (Homo sapiens, UniProt P28222); assay: BRET Gαi1 activation
5-HT1AR [2] = target: T1, 5-HT1AR; assay: GloSensor cAMP assay in HEK293A cells deficient of β-arrestins; format: cell-based; design: host or cells: HEK293T, HEK293A, HEK293AΔGs, HEK293AΔGi/o, HEK293AΔARRB1/B2
5-HT1AR [3] = target: T1, 5-HT1AR; format: cell-based; design: host or cells: HEK293T, HEK293A, HEK293AΔGs, HEK293AΔGi/o, HEK293AΔARRB1/B2; conditions: HEK293AΔGi/o, GloSensor
adrenergic α2A = adrenergic α2A (Homo sapiens, UniProt P08913); assay: Radioligand displacement, [3H]RX821002
5-HT2AR = target: T5, 5-HT2AR (Homo sapiens, UniProt P28223); assay: Radioligand competition, displacement of [3H]ketanserin; format: binding
T5 construct: whole cells for IP-One

α2BR = α2BR (Homo sapiens, UniProt P18089); assay: BRET Gαi1 activation
5-HT1AR [4] = target: T1, 5-HT1AR; assay: cell-based
[5] = target: T6, 5-HT1AR F112^3.28W + M92^2.60F (Homo sapiens, UniProt P08908, F112W/M92F); assay: GloSensor cAMP assay in HEK293A cells; format: cell-based
T6 sequence (P08908 1-422 M92F/F112W): T1 sequence (P08908 1-422) with M92F, F112W

[6] = HEK293-A, read-out: Emax [%±SEM], inhibition of cAMP accumulation
[7] = HEK293-A; read-out: Emax [%±SEM], inhibition of cAMP accumulation

T5 sequence (P28223 whole entry): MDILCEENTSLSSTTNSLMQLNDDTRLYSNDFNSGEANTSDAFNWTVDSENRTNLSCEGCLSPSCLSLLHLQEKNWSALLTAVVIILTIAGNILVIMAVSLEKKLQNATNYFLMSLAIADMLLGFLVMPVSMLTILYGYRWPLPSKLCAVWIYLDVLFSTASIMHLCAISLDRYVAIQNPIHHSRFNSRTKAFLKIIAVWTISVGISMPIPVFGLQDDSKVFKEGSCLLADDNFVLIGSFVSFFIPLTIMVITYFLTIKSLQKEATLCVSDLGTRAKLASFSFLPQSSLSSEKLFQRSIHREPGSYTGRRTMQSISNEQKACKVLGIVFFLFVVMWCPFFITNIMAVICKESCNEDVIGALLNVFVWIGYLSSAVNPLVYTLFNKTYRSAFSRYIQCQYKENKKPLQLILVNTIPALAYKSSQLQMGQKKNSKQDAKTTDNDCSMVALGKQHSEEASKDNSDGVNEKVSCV
T3 sequence (P19086 2-355 partner limits assumed, one chain of several): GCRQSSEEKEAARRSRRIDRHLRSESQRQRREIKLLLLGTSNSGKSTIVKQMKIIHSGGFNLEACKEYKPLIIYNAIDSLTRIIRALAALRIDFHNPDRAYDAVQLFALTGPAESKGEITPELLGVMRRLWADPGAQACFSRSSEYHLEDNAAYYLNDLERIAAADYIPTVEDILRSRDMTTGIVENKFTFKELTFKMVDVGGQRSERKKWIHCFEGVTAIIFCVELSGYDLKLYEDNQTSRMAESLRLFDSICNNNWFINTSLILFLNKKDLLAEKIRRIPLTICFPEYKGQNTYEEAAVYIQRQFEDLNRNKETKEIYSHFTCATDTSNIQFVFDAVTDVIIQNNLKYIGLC
5-HT1BR, sequence (P28222 whole entry): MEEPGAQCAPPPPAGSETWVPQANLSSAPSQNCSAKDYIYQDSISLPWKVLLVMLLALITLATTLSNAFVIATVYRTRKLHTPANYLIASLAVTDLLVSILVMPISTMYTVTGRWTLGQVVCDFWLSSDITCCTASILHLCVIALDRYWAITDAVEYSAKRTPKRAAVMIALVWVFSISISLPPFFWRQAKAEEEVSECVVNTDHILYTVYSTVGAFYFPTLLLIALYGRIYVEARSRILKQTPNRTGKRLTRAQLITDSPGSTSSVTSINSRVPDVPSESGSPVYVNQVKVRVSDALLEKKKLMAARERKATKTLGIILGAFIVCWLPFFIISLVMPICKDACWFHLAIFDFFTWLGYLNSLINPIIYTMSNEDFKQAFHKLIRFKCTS
muscarinic M1, sequence (P11229 whole entry): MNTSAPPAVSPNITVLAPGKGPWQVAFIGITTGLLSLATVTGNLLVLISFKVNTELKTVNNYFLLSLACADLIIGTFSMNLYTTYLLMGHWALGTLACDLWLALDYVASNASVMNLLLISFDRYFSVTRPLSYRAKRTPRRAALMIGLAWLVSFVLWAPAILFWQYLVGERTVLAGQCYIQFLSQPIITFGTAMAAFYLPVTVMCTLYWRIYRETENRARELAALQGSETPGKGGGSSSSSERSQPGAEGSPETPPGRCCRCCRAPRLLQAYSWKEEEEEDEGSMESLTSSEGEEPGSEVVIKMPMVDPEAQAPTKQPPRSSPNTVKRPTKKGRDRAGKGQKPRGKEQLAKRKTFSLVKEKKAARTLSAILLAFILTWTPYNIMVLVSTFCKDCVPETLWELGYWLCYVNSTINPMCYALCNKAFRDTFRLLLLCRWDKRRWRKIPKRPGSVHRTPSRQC
adrenergic α2A, sequence (P08913 whole entry): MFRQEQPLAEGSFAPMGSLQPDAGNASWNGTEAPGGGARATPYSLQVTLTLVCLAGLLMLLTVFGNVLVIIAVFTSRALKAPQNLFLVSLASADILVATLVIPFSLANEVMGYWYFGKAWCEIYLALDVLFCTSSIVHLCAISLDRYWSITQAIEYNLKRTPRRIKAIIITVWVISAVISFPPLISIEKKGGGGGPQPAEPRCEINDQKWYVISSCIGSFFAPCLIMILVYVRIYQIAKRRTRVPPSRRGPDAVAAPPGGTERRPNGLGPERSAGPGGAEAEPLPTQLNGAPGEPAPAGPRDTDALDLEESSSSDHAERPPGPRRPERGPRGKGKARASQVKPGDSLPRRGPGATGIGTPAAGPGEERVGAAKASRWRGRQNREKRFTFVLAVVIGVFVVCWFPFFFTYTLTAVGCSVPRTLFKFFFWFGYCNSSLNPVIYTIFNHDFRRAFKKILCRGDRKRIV
neurotensin NTS1, sequence (P30989 whole entry): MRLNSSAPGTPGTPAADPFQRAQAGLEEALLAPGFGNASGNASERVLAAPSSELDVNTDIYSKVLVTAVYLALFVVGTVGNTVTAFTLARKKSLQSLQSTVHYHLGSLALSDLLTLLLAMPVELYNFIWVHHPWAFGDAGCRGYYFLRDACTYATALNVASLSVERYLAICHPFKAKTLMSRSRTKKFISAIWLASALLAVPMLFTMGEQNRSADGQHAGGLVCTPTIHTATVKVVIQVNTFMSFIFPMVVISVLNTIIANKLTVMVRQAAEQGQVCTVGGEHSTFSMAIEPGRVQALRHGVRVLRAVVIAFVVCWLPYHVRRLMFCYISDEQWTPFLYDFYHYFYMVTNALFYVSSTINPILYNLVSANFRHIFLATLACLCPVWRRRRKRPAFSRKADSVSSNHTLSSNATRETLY
α2BR, sequence (P18089 whole entry): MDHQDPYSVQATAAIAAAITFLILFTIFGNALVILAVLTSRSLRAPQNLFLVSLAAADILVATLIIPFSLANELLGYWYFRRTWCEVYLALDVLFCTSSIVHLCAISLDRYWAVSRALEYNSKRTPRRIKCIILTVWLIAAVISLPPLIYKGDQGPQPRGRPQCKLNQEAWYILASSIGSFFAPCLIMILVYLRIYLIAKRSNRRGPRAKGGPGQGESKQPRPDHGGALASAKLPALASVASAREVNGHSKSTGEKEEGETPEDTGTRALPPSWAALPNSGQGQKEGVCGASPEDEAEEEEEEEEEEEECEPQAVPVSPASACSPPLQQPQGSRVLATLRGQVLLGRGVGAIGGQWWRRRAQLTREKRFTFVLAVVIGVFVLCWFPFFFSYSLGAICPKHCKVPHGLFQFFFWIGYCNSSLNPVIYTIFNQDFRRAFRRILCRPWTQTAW

COc1ccccc1OCCNCCCOc1ccc2c(c1)NC(=O)CO2 [ST171]
Emax (5-HT1AR [1]; CHO-K1, CAMYEL, PTX addition; read-out: Emax, cAMP effect in the presence of PTX): < 5% | Emax (5-HT1AR [1]; CHO-K1, read-out: Emax [%±SEM], inhibition of cAMP accumulation): 87 ± 1% | EC50 (5-HT1AR [1]; CHOK1, CAMYEL, wildtype; read-out: EC50 left [nM±SEM], inhibition of cAMP accumulation): 0.88 ± 0.3 nM | Ki (muscarinic M1; Ki [nM ± SD]): 10000 ± 920 nM | Ki (muscarinic M1; pKi): 10300 nM | Ki (5-HT1AR Q97^2.65A): 63 nM | Ki (neurotensin NTS1; Ki [nM ± SD]): > 50000 nM | Ki (neurotensin NTS1; pKi): > 50100 nM | Emax (5-HT1AR + Gαz): 93% | Ki (5-HT1AR wt; 5-HT1A, read-out: pKi (converted)): 0.369 nM | Ki (5-HT1AR wt; 5-HT1AR wt, membranes from transiently transfected HEK 293T cells, read-out: Ki [nM ± SEM]): 0.41 nM | EC50 (5-HT1BR): 3.7 nM | Emax (5-HT1BR): 94% | Emax (5-HT1AR [2]; [6]): 60% | EC50 (5-HT1AR [2]; HEK Δβ-arrestin, GloSensor; read-out: EC50 left [nM±SEM], inhibition of cAMP accumulation): 3.5 ± 1 nM | IC50 (5-HT1AR [3]): 3.9 ± 0.8 nM | Ki (adrenergic α2A; Ki [nM ± SD]): 260 nM | Ki (adrenergic α2A; pKi): 204 nM | Ki (5-HT2AR; 5-HT2A, read-out: pKi (converted)): 260 nM | Ki (5-HT2AR; 5-HT2AR, HEK 293T membranes, read-out: Ki [nM ± SEM]): 280 ± 30 nM | intrinsic activity (α2BR): devoid of intrinsic activity | EC50 (5-HT1AR [4]): 1.6 nM | Emax [5, 6]: 77 ± 5% | EC50 ([5]; HEK293A, GloSensor, F112W + M92F; read-out: EC50 left [nM±SEM], inhibition of cAMP accumulation): 1.7 ± 0.4 nM

Cc1ccc(CNCC2(F)CCN(C(=O)c3ccc(F)c(Cl)c3)CC2)nc1 [befiradol, reference compound]
Emax (5-HT1AR [1]; CHO-K1; read-out: Emax [%±SEM], inhibition of cAMP accumulation): 91 ± 3% | Esat [%±SEM], efficacy at saturating ligand concentrations (5-HT1AR [1]; CHOK1, CAMYEL; relative to serotonin maximum inhibition): 65 ± 4% | Emax (5-HT1AR + Gαz): 95 ± 2% | Emax (5-HT1AR [2]; [7]): 89 ± 4% | Esat [%±SEM] (5-HT1AR [2]; HEK Δβ-arrestin, GloSensor): 73 ± 5% | Ki (5-HT2AR): 15000 nM | Emax [5, 7]: 92 ± 7%
